From the NIST ThermoML archive (doi:10.1021/je300175w)
“And” between values parts separate entries of the source, which are not always exact repeats. Identical values can stand only once.

Experiment: mn = molality of the nth substance listed, in mol/kg
Details: 101 kPa, Liquid; for speed of sound: Sing-around technique in a fixed-path interferometer; for mass density: Vibrating tube method

CCC(CO)(CO)COCC(CC)(CO)CO [3,3,7,7-tetrakis(hydroxymethyl)-5-oxanonane] + O
speed of sound
Details	278.15 K	283.15 K	288.15 K	293.15 K	298.15 K	308.15 K	318.15 K
m1 = 0.01972	1429.8 m/s	1450.6 m/s	1469 m/s	1485.2 m/s	1499.3 m/s	1522.2 m/s and 1522 m/s	1538.2 m/s and 1538.3 m/s
m1 = 0.04105	1433.6 m/s and 1433.7 m/s	1454.1 m/s	1472.3 m/s	1488.2 m/s	1502.1 m/s	1524.5 m/s and 1524.3 m/s	1540.2 m/s and 1540.3 m/s
m1 = 0.06045	1437.1 m/s	1457.3 m/s	1475.2 m/s	1490.9 m/s	1504.6 m/s	1526.6 m/s and 1526.4 m/s	1542 m/s and 1542.1 m/s
m1 = 0.079	1440.3 m/s	1460.3 m/s	1478 m/s	1493.4 m/s	1506.9 m/s	1528.6 m/s and 1528.4 m/s	1543.7 m/s and 1543.8 m/s

CC(C)(C)CO [2,2-dimethyl-1-propanol] + O
speed of sound
Details	278.15 K	283.15 K	288.15 K	293.15 K	298.15 K	308.15 K	318.15 K
m1 = 0.0485	1430.2 m/s	1452.5 m/s	1470.7 m/s	1486.8 m/s	1500.7 m/s	1523.3 m/s and 1523.1 m/s	1539.1 m/s and 1539.2 m/s
m1 = 0.09995	1434.4 m/s	1457.9 m/s and 1458 m/s	1475.7 m/s	1491.3 m/s	1504.9 m/s	1526.6 m/s and 1526.4 m/s	1541.8 m/s
m1 = 0.1472	1438.2 m/s and 1438.1 m/s	1463 m/s and 1462.9 m/s	1480.2 m/s	1495.5 m/s	1508.7 m/s	1529.7 m/s and 1529.5 m/s	1544.3 m/s and 1544.2 m/s
m1 = 0.1999	1442.3 m/s	1468.5 m/s and 1468.4 m/s	1485.2 m/s	1500 m/s	1512.8 m/s	1532.9 m/s	1546.9 m/s

CC(CO)(CO)CO [1,1,1-trimethylolethane] + O
speed of sound
Details	278.15 K	283.15 K	288.15 K	293.15 K	298.15 K	308.15 K	318.15 K
m1 = 0.09995	1433.9 m/s and 1433.8 m/s	1454.4 m/s	1472.6 m/s	1488.5 m/s	1502.4 m/s and 1502.5 m/s	1525 m/s	1540.9 m/s
m1 = 0.1985	1441.3 m/s	1461.3 m/s	1479 m/s	1494.5 m/s	1508 m/s and 1508.1 m/s	1529.9 m/s	1545.2 m/s and 1545.5 m/s
m1 = 0.291	1448.2 m/s	1467.7 m/s	1484.9 m/s	1500.1 m/s	1513.2 m/s	1534.4 m/s and 1534.7 m/s	1549.1 m/s and 1549 m/s
m1 = 0.3923	1455.6 m/s	1474.6 m/s	1491.3 m/s and 1491.4 m/s	1506.1 m/s	1518.8 m/s	1539.3 m/s and 1539.6 m/s	1553.3 m/s and 1553.2 m/s
m1 = 0.4962	1463.1 m/s	1481.5 m/s and 1481.6 m/s	1497.8 m/s	1512.1 m/s	1524.4 m/s and 1524.5 m/s	1544.2 m/s and 1544.5 m/s	1557.6 m/s and 1557.4 m/s
m1 = 0.6042	1470.7 m/s	1488.6 m/s	1504.4 m/s	1518.2 m/s	1530.1 m/s and 1530.2 m/s	1549.2 m/s and 1548.9 m/s	1561.9 m/s and 1561.7 m/s

OCC(CO)(CO)CO [2,2-bis(hydroxymethyl)-1,3-propanediol] + O
Details	mass density	speed of sound
273.15 K, m1 = 0.1002	1003.54 kg/m3 and 1003.55 kg/m3	–
273.15 K, m1 = 0.1501	1005.3 kg/m3 and 1005.29 kg/m3	–
273.15 K, m1 = 0.2001	1007.05 kg/m3 and 1007.04 kg/m3	–
273.15 K, m1 = 0.2503	1008.77 kg/m3	–
273.15 K, m1 = 0.3005	1010.48 kg/m3	–
273.15 K, m1 = 0.35	1012.15 kg/m3 and 1012.16 kg/m3	–
278.15 K, m1 = 0.1002	–	1432.6 m/s and 1432.7 m/s
278.15 K, m1 = 0.1501	–	1435.8 m/s
278.15 K, m1 = 0.2001	–	1439 m/s
278.15 K, m1 = 0.2503	–	1442.1 m/s and 1442.2 m/s
278.15 K, m1 = 0.3005	–	1445.3 m/s
278.15 K, m1 = 0.35	–	1448.3 m/s and 1448.4 m/s
283.15 K, m1 = 0.1002	1003.23 kg/m3	1453.3 m/s
283.15 K, m1 = 0.1501	1004.96 kg/m3	1456.2 m/s and 1456.3 m/s
283.15 K, m1 = 0.2001	1006.68 kg/m3 and 1006.69 kg/m3	1459.2 m/s
283.15 K, m1 = 0.2503	1008.38 kg/m3 and 1008.39 kg/m3	1462.2 m/s
283.15 K, m1 = 0.3005	1010.07 kg/m3 and 1010.08 kg/m3	1465.1 m/s
283.15 K, m1 = 0.35	1011.72 kg/m3 and 1011.73 kg/m3	1468 m/s
288.15 K, m1 = 0.1002	1002.59 kg/m3	1471.6 m/s
288.15 K, m1 = 0.1501	1004.3 kg/m3	1474.4 m/s
288.15 K, m1 = 0.2001	1006 kg/m3 and 1006.01 kg/m3	1477.2 m/s
288.15 K, m1 = 0.2503	1007.68 kg/m3 and 1007.69 kg/m3	1479.9 m/s
288.15 K, m1 = 0.3005	1009.35 kg/m3 and 1009.36 kg/m3	1482.6 m/s and 1482.7 m/s
288.15 K, m1 = 0.35	1010.98 kg/m3 and 1010.99 kg/m3	1485.3 m/s and 1485.4 m/s
293.15 K, m1 = 0.1002	1001.66 kg/m3	1487.7 m/s
293.15 K, m1 = 0.1501	1003.35 kg/m3	1490.3 m/s
293.15 K, m1 = 0.2001	1005.04 kg/m3 and 1005.03 kg/m3	1492.9 m/s and 1492.8 m/s
293.15 K, m1 = 0.2503	1006.7 kg/m3 and 1006.71 kg/m3	1495.5 m/s
293.15 K, m1 = 0.3005	1008.35 kg/m3	1498 m/s and 1498.1 m/s
293.15 K, m1 = 0.35	1009.97 kg/m3	1500.6 m/s
298.15 K, m1 = 0.1002	1000.47 kg/m3	1501.7 m/s
298.15 K, m1 = 0.1501	1002.14 kg/m3 and 1002.15 kg/m3	1504.1 m/s and 1504.2 m/s
298.15 K, m1 = 0.2001	1003.82 kg/m3	1506.6 m/s
298.15 K, m1 = 0.2503	1005.47 kg/m3	1509 m/s and 1509.1 m/s
298.15 K, m1 = 0.3005	1007.1 kg/m3 and 1007.11 kg/m3	1511.5 m/s
298.15 K, m1 = 0.35	1008.7 kg/m3 and 1008.71 kg/m3	1513.9 m/s
303.15 K, m1 = 0.1002	999.044 kg/m3 and 999.045 kg/m3	1513.8 m/s
303.15 K, m1 = 0.1501	1000.71 kg/m3	1516.2 m/s
303.15 K, m1 = 0.2001	1002.36 kg/m3 and 1002.37 kg/m3	1518.5 m/s
303.15 K, m1 = 0.2503	1004 kg/m3	1520.8 m/s
303.15 K, m1 = 0.3005	1005.62 kg/m3	1523.1 m/s and 1523 m/s
303.15 K, m1 = 0.35	1007.22 kg/m3 and 1007.21 kg/m3	1525.3 m/s
308.15 K, m1 = 0.1002	997.404 kg/m3 and 997.402 kg/m3	1524.3 m/s
308.15 K, m1 = 0.1501	999.052 kg/m3 and 999.053 kg/m3	1526.5 m/s and 1526.4 m/s
308.15 K, m1 = 0.2001	1000.7 kg/m3	1528.6 m/s
308.15 K, m1 = 0.2503	1002.33 kg/m3	1530.8 m/s
308.15 K, m1 = 0.3005	1003.93 kg/m3 and 1003.94 kg/m3	1533 m/s and 1532.9 m/s
308.15 K, m1 = 0.35	1005.51 kg/m3 and 1005.52 kg/m3	1535.1 m/s and 1535 m/s
318.15 K, m1 = 0.1002	993.545 kg/m3 and 993.543 kg/m3	1540.4 m/s
318.15 K, m1 = 0.1501	995.176 kg/m3 and 995.177 kg/m3	1542.3 m/s and 1542.4 m/s
318.15 K, m1 = 0.2001	996.806 kg/m3 and 996.808 kg/m3	1544.2 m/s and 1544.3 m/s
318.15 K, m1 = 0.2503	998.41 kg/m3 and 998.412 kg/m3	1546.2 m/s and 1546.3 m/s
318.15 K, m1 = 0.3005	1000 kg/m3	1548.1 m/s and 1548.2 m/s
318.15 K, m1 = 0.35	1001.56 kg/m3	1549.9 m/s and 1550 m/s and 1550.1 m/s
